From patent US20240083857A1, “2-Methyl-Quinazolines” (Bayer Pharma Aktiengesellschaft, priority 2017, published 2024)

Legend:
[1] = target: human SOS1 (nucleotide exchange of K-Ras^G12C) (Homo sapiens, UniProt Q07889); assay: Biochemical assay 2: K-Ras^G12C activation assay by hSOS1 at high GTP concentration (HTRF); conditions: high GTP; read-out: Assay 2 (KRAS-Activation by SOS high GTP) activity expressed as IC50
[2] = target: human SOS1 (loading of human K-Ras^G12C-GDP with fluorescent GTP-analog) (Homo sapiens, UniProt Q07889); assay: Biochemical assay 3: K-Ras^G12C activation assay by hSOS1 (HTRF); conditions: no GTP; read-out: Assay 3 (KRAS-Activation by SOS no GTP) activity expressed as IC50

Row | Structure (SMILES) | IC50 [1] [nM] | IC50 [2] [nM]
1 | CCCCNCc1ccccc1-c1ccc(C(C)Nc2nc(C)nc3cc(OC)c(OC)cc23)s1 (stereo not shown) [Example 366, N-[1-(5-{2-[(butylamino)methyl]phenyl}thiophen-2-yl)ethyl]-6,7-dimethoxy-2-methylquinazolin-4-amine] | 96.9 | 136
2 | CCNCc1ccccc1-c1ccc(C(C)Nc2nc(C)nc3cc(OC)c(OC)cc23)s1 (stereo not shown) [Example 367, N-[1-(5-{2-[(ethylamino)methyl]phenyl}thiophen-2-yl)ethyl]-6,7-dimethoxy-2-methylquinazolin-4-amine] | 61.3 | 99
